# Results from ChEMBL document CHEMBL1128149, “Molecular design of novel PGI2 agonists without PG skeleton. IV” (Bioorg Med Chem Lett, 1995).
# Legend:
# Homo sapiens = organism: Homo sapiens; assay: Compound was tested for its inhibitory activity against 4 uM ADP-induced platelet aggregation of human platelet rich plasma; type: functional
# Prostacyclin receptor = Prostacyclin receptor (Homo sapiens, UniProt P43119); assay: Compound was tested for its binding affinity against Prostaglandin I2 receptor using conventional ligand assay by the displacement of [3H]-iloprost from human platelets
# Sequence of Prostacyclin receptor (P43119 whole entry): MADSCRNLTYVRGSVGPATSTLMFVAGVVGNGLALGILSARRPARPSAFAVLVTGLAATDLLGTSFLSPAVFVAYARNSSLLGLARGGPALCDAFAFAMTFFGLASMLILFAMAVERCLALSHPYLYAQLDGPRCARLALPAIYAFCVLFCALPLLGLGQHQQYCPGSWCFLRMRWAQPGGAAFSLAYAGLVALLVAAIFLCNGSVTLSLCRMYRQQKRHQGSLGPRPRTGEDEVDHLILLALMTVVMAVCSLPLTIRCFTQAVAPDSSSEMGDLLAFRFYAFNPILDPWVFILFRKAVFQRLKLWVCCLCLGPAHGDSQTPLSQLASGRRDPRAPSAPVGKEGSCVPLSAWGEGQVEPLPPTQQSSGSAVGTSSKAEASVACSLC
smiles,measurement,setting,value
O=C(O)COc1cccc2c1CCC(CC1C=NC(C(c3ccccc3)c3ccccc3)=N1)C2 (stereo not drawn),IC50,"Homo sapiens; Homo sapiens, Plasma",12000 nM
O=C(O)COc1cccc2c1CCC=C2CCn1cc(C(c2ccccc2)c2ccccc2)cn1,IC50,Prostacyclin receptor,2000 nM
same,IC50,"Homo sapiens; Homo sapiens, Plasma",8600 nM
O=C(O)COc1cccc2c1CCCC2CCn1cc(C(c2ccccc2)c2ccccc2)cn1 (stereo not drawn),IC50,Prostacyclin receptor,18 nM
same,IC50,"Homo sapiens; Homo sapiens, Plasma",93 nM
O=C(O)COc1cccc2c1CCC(Cn1cc(C(c3ccccc3)c3ccccc3)cn1)C2 (stereo not drawn),IC50,Prostacyclin receptor,40 nM
same,IC50,Homo sapiens,530 nM
O=C(O)COc1cccc2c1CCC(Cc1nc(C(c3ccccc3)c3ccccc3)co1)C2 (stereo not drawn),IC50,Homo sapiens,5100 nM
O=C(O)COc1cccc2c1CCC(Cc1coc(C(c3ccccc3)c3ccccc3)n1)C2 (stereo not drawn),IC50,Homo sapiens,1000 nM
O=C(O)COc1cccc2c1CCC(Cn1cnc(C(c3ccccc3)c3ccccc3)c1)C2 (stereo not drawn),IC50,"Homo sapiens; Homo sapiens, Plasma",670 nM
O=C(O)COc1cccc2c1CCC(CC1=NC(C(c3ccccc3)c3ccccc3)=NC1)C2 (stereo not drawn),IC50,Homo sapiens,1000 nM
O=C(O)COc1cccc2c1CCC(Cn1cc(C(c3ccccc3)c3ccccc3)cn1)=C2,IC50,Prostacyclin receptor,8 nM
same,IC50,"Homo sapiens; Homo sapiens, Plasma",26 nM
